Values of other authors, collected in US20210029988A1, “PEST REPELLENT COMPOSITION” (JGC CATALYSTS AND CHEMICALS LTD., priority 2018, published 2021).

Experiments:
[1] = within 6 hours

CCN(CC)C(=O)c1cccc(C)c1 [DEET, N,N-diethyl-m-toluamide]
Vapor pressure at 20°C (VP): 0.22 Pa | Transdermally absorbed proportion of DEET applied on the skin [1]: about 50%
